The subject of test [1] is Haemonchus contortus L3 larvae. Briefly: Haemonchus contortus FTIR. The format is cell-based. The settings on record: worm samples; 3 mg/ml in DMSO added at 1/100; 24 hours at 37° C. On the procedure: 1. Haemonchus contortus L3 larvae were exsheated in 5% sodium hypochlorite for 10 minutes.
2. Following exsheathment the larvae were pelleted by centrifugation at 200×g for 2 minutes, the supernatant was removed and replaced with 1×PBS. This wash step was repeated twice to remove any traces of sodium hypochlorite then resuspended in DMEM containing L-glutamine and pen-strep but lacking in phenol red.
3. The larvae were aliquoted into a 384 well plate at approx. 100 larvae per well.
4. Compounds to be tested (aldicarb, levamisole and ivermectin) were made up at 3 mg/ml in DMSO then added to test wells at 1/100.
5. An identical quantity of DMSO, lacking any compound, was added to control wells.
6. The larvae were cultured for 24 hours at 37° C. following the addition of compounds (see FIG. 11). Wells containing media and compounds, but lacking in larvae, were also set up as controls for background.
For FTIR, two samples were run from each well containing larvae. The first consisted of 10 μl of supernatant taken from the top of the well without any disturbance. The second consisted of 10 μl containing worms and any sediment stirred up from the bottom of the well. A third 10 μl sample of media containing compounds but no larvae was also run for elimination of drug chemistry. Samples were dried at 50° C. for 45 minutes to prevent interference from water before being loaded into the FTIR machine.
Collected spectra were analysed using PyChem software. Two analyses were run for all data: principle components analysis (PCA; which compresses all of the data into smaller, discreet (2) components without there being any assumptions made) and discriminate function analysis (DFA; which takes information provided about class structure to run an algorithm to maximise distances between groups (different drug treatments) and minimise distances within groups (replicates of the same drug treatment)). The circles on the DFA graphs represent mean group centres i.e. treatments that segregate with confidence intervals of 95% (inner circle) and 99% (outer circle).

Test [2] relates to Schistosoma mansoni schistosomula. Briefly: dual-fluorescence (PI/FDA) schistosomula viability assay. The class given is cell-based. The settings on record: 10 μM, 24 hr. How it is done: Schistosoma mansoni (Puerto Rican strain) infected Biomphalaria glabrata snails were provided by Fred Lewis (Biomedical Research Institute, Rockville, Md., USA). Cercariae were shed from infected snails by exposure to light (60 min at room temperature, RT) and subsequently converted to schistosomula by mechanical transformation (Colley D G, Wikel S K (1974) Schistosoma mansoni: simplified method for the production of schistosomules. Experimental Parasitology 35: 44-51). Schistosomula were purified away from cercarial tails by centrifugation through a 60% percoll gradient (Lazdins J K, Stein M J, David J R, Sher A (1982) Schistosoma mansoni: rapid isolation and purification of schistosomula of different developmental stages by centrifugation on discontinuous density gradients of Percoli. Experimental Parasitology 53: 39).
Microscope examination was used to assess the quantity and quality of purified schistosomula. Schistosomula were cultured at 37° C. in T25 tissue culture flasks containing 9 ml DMEM (Dulbecco's Modified Eagle Medium, Sigma-Aldrich), lacking phenol red but containing 4500 mg/I glucose, supplemented with 10% foetal calf serum, 2 mM L-glutamine, 200 U/ml penicillin, 200 μg/ml streptomycin (all Sigma-Aldrich) in an atmosphere of 5% CO2 for 24 hr before any further experimental manipulations proceeded. Negligible parasite death occurred in this media during the 24 hr culturing period. Following this, schistosomula were aliquoted into black-sided, flat-bottom (optically clear), 96-well microtiter plates (Fisher Scientific) in 200 μl media or black-sided, flat-bottom (optically clear), 384-well microtiter plates (Matrix) in 40 μl media.
Stock solutions of all compounds were made up at 1 mM in appropriate solvents and stored at −80° C. All compounds were added to black-sided, flat-bottom (optically clear), 96-well microtiter plates containing schistosomula (1000 parasites/well in triplicate) at 10 μM concentrations. Schistosomula were cultured (as already indicated; 37° C., 5% CO2) in the presence of each compound for 24 hr before viability levels were assessed.
After the 24 hr culturing period in the presence of test compounds, and prior to addition of fluorescent dyes, all schistosomula were washed three times to remove test compound and culture media supplements. Each wash consisted of centrifuging microtiter plates containing schistosomula at 100×g for 5 min, removal of half the old culture media and replacement with an equal quantity of fresh DMEM (lacking phenol red). After washing the parasites, […] and FDA were simultaneously added to each well of the microtiter plate to obtain a final concentration of 2.0 μg/ml and 0.5 μg/ml respectively.
The 96-well microtiter plates, now containing fluorescently labeled parasites, were subsequently loaded into a BMG Labtech Polarstar Omega plate reader containing appropriate filters for the simultaneous detection of PI (544 nm excitation/620 nm emission) and FDA (485 nm excitation/520 nm emission). All fluorescent values were obtained with the plate reader incubator set at 37° C. to ensure efficient esterase conversion of FDA to fluorescein within live schistosomula. The plate reader automatically sets the photo multiplier tube (PMT) gain for each fluorescent dye and this may slightly vary between experiments. Inclusion of appropriate control samples (live and dead schistosomula) compensates for any inter-plate variations in gain settings.
All data were exported into Microsoft Excel for organization and into Minitab (Version 14) for statistical analyses. A One-Way Analysis of Variance (ANOVA) followed by post hoc testing with Fisher's least significant difference (LSD) was used to detect statistical differences between treatments. […].
Numbers of live and dead schistosomula in each well of a microtiter plate were calculated using the following equations: […]

Another test concerns schistosomula. The settings on record: previously published activities; cited from earlier work.
The subject of test [3] is Schistosoma mansoni schistosomula. The test can be described thus: microscopic examination of compound-treated schistosomula. The settings on record: 24 hr. The format is cell-based. On the procedure:
Live and heat killed schistosomula stained with optimal concentrations (empirically derived from Jones K, Senft J (1985) An improved method to determine cell viability by simultaneous staining with fluorescein diacetate-propidium iodide. The Journal of Histochemistry and Cytochemistry 33: 77-79) of propidium iodide (PI, 2.0 μg/ml; Sigma-Aldrich), fluorescein diacetate (FDA, 0.5 μg/ml; Sigma-Aldrich) or both fluorophores were visualized at ×100 magnification using a Leica Axioplan microscope equipped with FITC (494 excitation) and Rhodamine (536 excitation) filters and a mercury vapor light source. A Hamamatsu CA74295 camera with Wasabi Version 1.4 software was used to capture photographic images of stained schistosomula.
Schistosomula, co-incubated with test compounds, were fluorescently visualized as above or unstained at ×100 magnification using an Olympus CK2 inverted microscope equipped with a stage extension plate and specimen holder for handling microtiter plates. A Kodak EasyShare DX7440 digital camera was used to capture images of unstained schistosomula.

Test [4] shares this test system. The test can be described thus: dual-fluorescence (PI/FDA) schistosomula viability assay. The class given is cell-based.
Test [5] concerns in vitro cultured, mechanically-transformed schistosomula. The settings on record: 10 μM, 24 hr after treatment; cited from earlier work.

“Also recorded” adds a separate entry of the source. Counter-ions that a name gives are not always drawn.

`CNC(=O)O/N=C/C(C)(C)SC` [aldicarb]: the “FTIR separation of treatment from DMSO control, worms” value (shortened to “FTIR separation of treatment”) in test [1] was “good separation”.
With `C[C@@H]1[C@H](O)[C@@H](C)/C=C/C=C/C=C/C=C/C=C/C=C/C=C/[C@H](O[C@@H]2O[C@H](C)[C@@H](O)[C@H](N)[C@@H]2O)C[C@@H]2O[C@](O)(C[C@@H](O)C[C@@H](O)[C@H](O)CC[C@@H](O)C[C@@H](O)CC(=O)O[C@H]1C)C[C@H](O)[C@H]2C(=O)O` [amphotericin b], in test [2], the “schistosomula viability by dual-fluorescent viability assay” value (“schistosomula viability” below) was “induced measurable death”. Also, the “previously described effect on schistosomula phenotype” value (“previously described effect” for short) in the test on schistosomula was “induce schistosomula mortality”.
As for `CC(=O)OC[C@H]1O[C@@H]([S-])[C@H](OC(C)=O)[C@@H](OC(C)=O)[C@@H]1OC(C)=O.CCP(CC)CC.[Au+]` [auranofin], the “PI/FDA staining of schistosomula by epifluorescent microscopy” value in test [3] (1 μM auranofin) is “displayed cells that were stained with either PI or FDA throughout the body”. Moreover, the “death confirmed by microscopic examination of schistosomula” value in test [3] (10 μM) was determined as 100%. The “auranofin-mediated mortality compared to vehicle treated (DMSO) or untreated parasites” value in test [4] (5 μM, 2.5 μM and 1.25 μM, 24 hr) is “Statistically-significant”. The “anti-schistosomula effect (viability per drug concentration)” value in test [4] (24 hours post-treatment) was “clear and titratable anti-schistosomula effect”. Further, the “anti-schistosomula LD50 activity” value in test [4] (auranofin titration series, fluorescent-based microtiter plate quantification, 24 hr) was 0.82 µM. Also, the “lethality to schistosomula estimated by light microscopy” value in test [5] was 100%.
Turning to `CC(C)COCC(CN(Cc1ccccc1)c1ccccc1)N1CCCC1` (stereo not shown) [bepridil], in test [2], the “schistosomula viability” value is “none showed strong decreases in viability”.
The same measure, in the same setting: with `C[C@@](Cc1ccc(O)c(O)c1)(NN)C(=O)O` [carbidopa] the entry was “none showed strong decreases in viability”.
As to `CN(C)CCCN1c2ccccc2Sc2ccc(Cl)cc21` [chlorpromazine hydrochloride], the “schistosomula viability” value in test [2] is listed as “did not affect schistosomula viability”. The “previously described effect” value with schistosomula is reported as “induce schistosomula over-activity”.
On to `Cc1cc(C2CCCCC2)n(O)c(=O)c1` [ciclopirox], for which, in test [2], the “schistosomula viability” value is given as “none showed strong decreases in viability”. Besides, the “schistosomula phenotype by microscopic examination” value in test [3] (10 μM) was “shape alterations in schistosomula phenotype”.
In the case of `Nc1[nH]c(=O)ncc1F` [flucytosine], the “schistosomula viability” value in test [2] is on record as “none showed strong decreases in viability”.
With `CNCCC(Oc1ccc(C(F)(F)F)cc1)c1ccccc1` (stereo not shown) [fluoxetine hydrochloride], the “schistosomula viability” value in test [2] is on record as “did not affect schistosomula viability”. In addition, the “previously described effect” value in the test on schistosomula is listed as “induce schistosomula over-activity”.
Turning to `CC(C)=CCC[C@]1(C)C=Cc2c(O)c3c(c(CC=C(C)C)c2O1)O[C@]12C(=C[C@@H]4C[C@H]1C(C)(C)O[C@@]2(C/C=C(/C)C(=O)O)C4=O)C3=O` [gambogic acid], the “schistosomula viability” value in test [2] is “induced measurable death”. In addition, in the test on schistosomula, the “previously described effect” value was “induce schistosomula mortality”.
With `c1ccc([C@H]2CN3CCSC3=N2)cc1` [levamisole], in test [1], the “FTIR separation of treatment” value was “good separation”.
Regarding `Clc1ccc(COC(Cn2ccnc2)c2ccc(Cl)cc2Cl)c(Cl)c1` (stereo not shown) [miconazole nitrate], in test [2], the “schistosomula viability” value is recorded as “did not affect schistosomula viability”. In addition, the “previously described effect” value in the test with schistosomula is on record as “shape alteration (‘rounded’ phenotype)”.
Turning to `O=C(Nc1ccc([N+](=O)[O-])cc1Cl)c1cc(Cl)ccc1O` [niclosamide], the “schistosomula viability” value in test [2] was “fluorescent viability measurements similar to those derived from untreated parasites”. Moreover, the “previously described effect” value in the test on schistosomula is “induce schistosomula mortality”.
For `O=C(C1CCCCC1)N1CC(=O)N2CCc3ccccc3C2C1` (stereo not shown) [praziquantel], in test [2], the “schistosomula viability” value is “did not affect schistosomula viability; also recorded: does not kill in vitro”. For the same compound, the “schistosomula phenotype by microscopic examination” value in test [3] (10 μM) is reported as “strong rounded phenotype”. In addition, the “previously described effect” value in the test with schistosomula was “shape alteration (‘rounded’ phenotype)”.
Turning to `COC(=O)[C@H]1[C@H]2C[C@@H]3c4[nH]c5cc(OC)ccc5c4CCN3C[C@H]2C[C@@H](OC(=O)/C=C/c2cc(OC)c(OC)c(OC)c2)[C@@H]1OC` [rescinnamine], the “schistosomula viability” value in test [2] is listed as “none showed strong decreases in viability”.
In the case of `CC[C@@H](C(=O)[C@@H](C)[C@@H](O)[C@H](C)[C@@H]1O[C@@H]([C@@H](CC)C(=O)O)CC[C@@H]1C)[C@H]1O[C@]2(C=C[C@@H](O)[C@]3(CC[C@@](C)([C@H]4CC[C@](O)(CC)[C@H](C)O4)O3)O2)[C@H](C)C[C@@H]1C` [sodium salinomycin], in test [2], the “schistosomula viability” value is “fluorescent viability measurements similar to those derived from untreated parasites”. In addition, the “schistosomula phenotype by microscopic examination” value in test [3] (10 μM) is “strongly FDA positive (with some PI positive cells) (FIG. 6C), dark and granular (FIG. 6H), but motile”. The “previously described effect” value in the test on schistosomula is on record as “induce schistosomula mortality”.
With `CC[C@]1(O)C[C@@H]2CN(CCc3c([nH]c4ccccc34)[C@@](C(=O)OC)(c3cc4c(cc3OC)N(C)[C@H]3[C@@](O)(C(=O)OC)[C@H](OC(C)=O)[C@]5(CC)C=CCN6CC[C@]43[C@@H]65)C2)C1` [vinblastine], the “schistosomula viability” value in test [2] was “none showed strong decreases in viability”.
In the case of ivermectin, the “FTIR separation of treatment” value in test [1] is “good separation”.

Source of the values: patent US20120225019A1, “Dual Fluorescence Assay For Determining Viability Of Parasitic Or Non-Parasitic Worms” (priority 2009, published 2012).
